According to US6723897B2, “Methods for controlling gibberellin levels” (Monsanto Technology, LLC, priority 1998, dated 2004):

Key:
[1] = tested on: transgenic line 719 soybean; experiment: Field trial of seed coatings under soil compaction / different soils, GA-deficient soybean; type: in vivo, Glycine max; settings: for Count (emergence) / Dwarfs (number of dwarfs not rescued) / Dwarfs (number not rescued): Line 719; for rank of potential for rescuing GA-deficient dwarf soybeans without decreasing emergence: based on the last two field trials; for best to least selectivity order: emergence under soil compaction, margin of selectivity, rescue without overelongation
[2] = tested on: constitutively GA-deficient transgenic dwarf soybean line 719; experiment: Field trial of seed coating application rates, GA-deficient soybean; type: in vivo, Glycine max; settings: for 719 Height, cm, Heavy soil / 719 Height, cm, Light soil / No. 719 Emerged, Heavy soil / No. 719 Emerged, Light soil / No. 719 Not Rescued, Heavy soil / No. 719 Not Rescued, Light soil: seed coating
Protocol: GA3, GA3-3-acetate, GA5, GA9, and GA12 are evaluated in further field trials. […] The objectives of these tests are: 1) to determine if seed coatings, as compared to imbibition, of GA compounds facilitate rescue of constitutively GA-deficient transgenic dwarf soybeans (transgenic lines 719−2 plus 719+17) without causing elongation of wild-type soybeans (line A4922), and 2) to determine the seed treatment rate ranges for each of the selected GA compounds that would provide rescue of constitutively GA-deficient transgenic dwarf soybeans (transgenic lines 719−2 plus 719+17) without causing elongation of wild-type soybeans (line A4922).
Seeds are treated with GA3, GA5, GA9, GA12, and GA3-3-acetate at rates of 0, 0.1, 1, 10, and 100 μg/seed. These GA compounds are applied to the seeds using a Hege 11 seed treater (Hans-Ulrich Hege GmbH & Co., Waldenburg, Germany); 100% acetone is used as the carrier solvent. The amount of liquid introduced into the seed treater is six fluid ounces/100 lbs seed rate. In addition, GA12 is tested at 50 μg/seed. The untreated control (UTC) consisted of dry, untreated seeds. Seeds of constitutively GA-deficient transgenic dwarf soybean line 719 and wild-type A4922 are sown in both light and heavy soil. The planting depth is 0.5 to 1 inch (1.27 to 2.54 cm); watering is via drip irrigation. The experiment is carried out in three repetitions, using 25 seeds/plot (one five foot (152.4 cm) long row) for line 719, and 75 seeds/plot (two eight foot (243.8 cm) rows) for line A4922. Observations included total emergence, number of dwarfs not rescued, uniformity in plant height, average plant height, visual notes, and digital photos.
In all the experiments reported in Tables 17-24, treatments are replicated three times in a randomized block design. Data are analyzed using LSD (least significant difference) 0.05 probability using the PRM 5.0 Statistical Analysis Program (SAS Institute, North Carolina).

[3] = Heavy soil - Loose, target rate 0.5 μg/seed, Table 23
[4] = Heavy soil - Loose, target rate 2.0 μg/seed, Table 23
[5] = Heavy soil - Loose, target rate 4.0 μg/seed, Table 23
[6] = Heavy soil - compacted, target rate 0.5 μg/seed, Table 23
[7] = Heavy soil - compacted, target rate 2.0 μg/seed, Table 23
[8] = Heavy soil - compacted, target rate 4.0 μg/seed, Table 23
[9] = Heavy soil - loose, target rate 0.5 μg/seed, Table 22
[10] = Heavy soil - loose, target rate 2.0 μg/seed, Table 22
[11] = Light soil - Compacted, target rate 0.5 μg/seed, Table 22
[12] = Light soil - Compacted, target rate 2.0 μg/seed, Table 22
[13] = Light soil - Loose, target rate 0.5 μg/seed, Table 24
[14] = Light soil - Loose, target rate 2.0 μg/seed, Table 24
[15] = Light soil - Loose, target rate 4.0 μg/seed, Table 24
[16] = Light soil - compacted, target rate 0.5 μg/seed, Table 24
[17] = Light soil - compacted, target rate 2.0 μg/seed, Table 24
[18] = Light soil - compacted, target rate 4.0 μg/seed, Table 24

## C=C1C[C@]23C[C@@]1(O)CC[C@H]2[C@@]12C=C[C@H](OC(C)=O)[C@@](C)(C(=O)O1)[C@H]2[C@@H]3C(=O)O [GA3-3-acetate]
[1]; [3]
  Count (emergence): 31.3 bcd
  Dwarfs (number of dwarfs not rescued): 0.3 de
[1]; [4]
  Count (emergence): 27.3 cd
  Dwarfs (number of dwarfs not rescued): 0 e
[1]; [5]
  Count (emergence): 18.3 ef
  Dwarfs (number of dwarfs not rescued): 0 e
[1]; [6]
  Count (emergence): 10.3 c-f
  Dwarfs (number of dwarfs not rescued): 0.3 cd
[1]; [7]
  Count (emergence): 7.3 efg
  Dwarfs (number of dwarfs not rescued): 0 days
[1]; [8]
  Count (emergence): 2.0 g
  Dwarfs (number of dwarfs not rescued): 0 days
[1]; [9]
  Count (emergence): 31 bcd
  Dwarfs (number of dwarfs not rescued): 3.3 c
[1]; [10]
  Count (emergence): 27 cd
  Dwarfs (number of dwarfs not rescued): 0.3 de
[1]; [11]
  Count (emergence): 25 def
  Dwarfs (number of dwarfs not rescued): 0 days
[1]; [12]
  Count (emergence): 22 efg
  Dwarfs (number of dwarfs not rescued): 0 days
[1]; [13]
  Count (emergence): 45.3 ab
  Dwarfs (number not rescued): 0.3 e
[1]; [14]
  Count (emergence): 43.3 ab
  Dwarfs (number not rescued): 0 c
[1]; [15]
  Count (emergence): 42.7 ab
  Dwarfs (number not rescued): 0 c
[1]; [16]
  Count (emergence): 25.3 def
  Dwarfs (number not rescued): 0
[1]; [17]
  Count (emergence): 22.0 efg
  Dwarfs (number not rescued): 0
[1]; [18]
  Count (emergence): 33.7 a-e
  Dwarfs (number not rescued): 0
[1]
  rank of potential for rescuing GA-deficient dwarf soybeans without decreasing emergence: GA9>GA5>GA3-3-acetate>GA3>GA12
[1]; Table 22
  best to least selectivity order: GA9>GA5>GA3-3-acetate>GA3
[2]; 0.1 μg compound per seed
  719 Height, cm, Heavy soil: 3.3 e-i cm
  719 Height, cm, Light soil: 5.3 efg cm
  No. 719 Emerged, Heavy soil: 18.7 a-d
  No. 719 Emerged, Light soil: 21.0 ab
  No. 719 Not Rescued, Heavy soil: 0.3 ef
  No. 719 Not Rescued, Light soil: 0.7
[2]; 1 μg compound per seed
  719 Height, cm, Heavy soil: 6.0 cd cm
  719 Height, cm, Light soil: 6.3 e cm
  No. 719 Emerged, Heavy soil: 21.3 abc
  No. 719 Emerged, Light soil: 21.7 ab
  No. 719 Not Rescued, Heavy soil: 0 f
  No. 719 Not Rescued, Light soil: 0.3
[2]; 10 μg compound per seed
  719 Height, cm, Heavy soil: 9.0 ab cm
  719 Height, cm, Light soil: 9.3 cm·days
  No. 719 Emerged, Heavy soil: 17.7 a-e
  No. 719 Emerged, Light soil: 20.3 a-d
  No. 719 Not Rescued, Heavy soil: 0 f
  No. 719 Not Rescued, Light soil: 0
[2]; 100 μg compound per seed
  719 Height, cm, Heavy soil: 8.7 ab cm
  719 Height, cm, Light soil: 12.0 b cm
  No. 719 Emerged, Heavy soil: 16.7 b-e
  No. 719 Emerged, Light soil: 17.7 b-f
  No. 719 Not Rescued, Heavy soil: 0 f
  No. 719 Not Rescued, Light soil: 0
[2]; judged on lines 719 and A4922, light and heavy soil
  preferred seed coating rate in this experiment: about 1 μg per seed

## C=C1C[C@]23C[C@@]1(O)CC[C@H]2[C@@]12CC=C[C@@](C)(C(=O)O1)[C@H]2[C@@H]3C(=O)O [GA5]
[1]; [3]
  Count (emergence): 31.7 bcd
  Dwarfs (number of dwarfs not rescued): 2.0 cde
[1]; [4]
  Count (emergence): 32.3 bcd
  Dwarfs (number of dwarfs not rescued): 0.7 cde
[1]; [5]
  Count (emergence): 30.3 bcd
  Dwarfs (number of dwarfs not rescued): 0 e
[1]; [6]
  Count (emergence): 18.3 ab
  Dwarfs (number of dwarfs not rescued): 0 days
[1]; [7]
  Count (emergence): 9.0 g·days
  Dwarfs (number of dwarfs not rescued): 0 days
[1]; [8]
  Count (emergence): 7.0 efg
  Dwarfs (number of dwarfs not rescued): 0 days
[1]; [9]
  Count (emergence): 32 bcd
  Dwarfs (number of dwarfs not rescued): 2.0 cde
[1]; [10]
  Count (emergence): 32 bcd
  Dwarfs (number of dwarfs not rescued): 0.7 cde
[1]; [11]
  Count (emergence): 39 abc
  Dwarfs (number of dwarfs not rescued): 0 days
[1]; [12]
  Count (emergence): 30 a-f
  Dwarfs (number of dwarfs not rescued): 0 days
[1]; [13]
  Count (emergence): 46.3 a
  Dwarfs (number not rescued): 1.0 e
[1]; [14]
  Count (emergence): 43.3 ab
  Dwarfs (number not rescued): 0 e
[1]; [15]
  Count (emergence): 45.0 ab
  Dwarfs (number not rescued): 0 e
[1]; [16]
  Count (emergence): 39.0 abc
  Dwarfs (number not rescued): 0
[1]; [17]
  Count (emergence): 30.3 a-f
  Dwarfs (number not rescued): 0
[1]; [18]
  Count (emergence): 32.7 a-e
  Dwarfs (number not rescued): 0
[1]
  rank of potential for rescuing GA-deficient dwarf soybeans without decreasing emergence: GA9>GA5>GA3-3-acetate>GA3>GA12
[1]; Table 22
  best to least selectivity order: GA9>GA5>GA3-3-acetate>GA3
[2]; 0.1 μg compound per seed
  719 Height, cm, Heavy soil: 5.0 def cm
  719 Height, cm, Light soil: 4.3 fg·cm
  No. 719 Emerged, Heavy soil: 22.0 ab
  No. 719 Emerged, Light soil: 21.7 ab
  No. 719 Not Rescued, Heavy soil: 1.7 def
  No. 719 Not Rescued, Light soil: 4.3 c
[2]; 1 μg compound per seed
  719 Height, cm, Heavy soil: 4.7 g·cm·days
  719 Height, cm, Light soil: 6.3 e cm
  No. 719 Emerged, Heavy soil: 21.0 abc
  No. 719 Emerged, Light soil: 22.7 a
  No. 719 Not Rescued, Heavy soil: 0.7 ef
  No. 719 Not Rescued, Light soil: 0
[2]; 10 μg compound per seed
  719 Height, cm, Heavy soil: 7.3 bc cm
  719 Height, cm, Light soil: 11.3 bc cm
  No. 719 Emerged, Heavy soil: 20.0 a-d
  No. 719 Emerged, Light soil: 20.0 a-d
  No. 719 Not Rescued, Heavy soil: 0.3 ef
  No. 719 Not Rescued, Light soil: 0.7
[2]; 100 μg compound per seed
  719 Height, cm, Heavy soil: 9.0 ab cm
  719 Height, cm, Light soil: 12.0 b cm
  No. 719 Emerged, Heavy soil: 12.3 ef
  No. 719 Emerged, Light soil: 14.3 f
  No. 719 Not Rescued, Heavy soil: 0 f
  No. 719 Not Rescued, Light soil: 0
